# Assay results reported in paper PMC8348101, “Personal Glucose Meter for α-Glucosidase Inhibitor Screening Based on the Hydrolysis of Maltose” (Molecules, 2021).
# Target: T1, α-glucosidase (Aspergillus niger, UniProt P56526)
# T1 construct: gene aglA
# T1 sequence (P56526 26-985): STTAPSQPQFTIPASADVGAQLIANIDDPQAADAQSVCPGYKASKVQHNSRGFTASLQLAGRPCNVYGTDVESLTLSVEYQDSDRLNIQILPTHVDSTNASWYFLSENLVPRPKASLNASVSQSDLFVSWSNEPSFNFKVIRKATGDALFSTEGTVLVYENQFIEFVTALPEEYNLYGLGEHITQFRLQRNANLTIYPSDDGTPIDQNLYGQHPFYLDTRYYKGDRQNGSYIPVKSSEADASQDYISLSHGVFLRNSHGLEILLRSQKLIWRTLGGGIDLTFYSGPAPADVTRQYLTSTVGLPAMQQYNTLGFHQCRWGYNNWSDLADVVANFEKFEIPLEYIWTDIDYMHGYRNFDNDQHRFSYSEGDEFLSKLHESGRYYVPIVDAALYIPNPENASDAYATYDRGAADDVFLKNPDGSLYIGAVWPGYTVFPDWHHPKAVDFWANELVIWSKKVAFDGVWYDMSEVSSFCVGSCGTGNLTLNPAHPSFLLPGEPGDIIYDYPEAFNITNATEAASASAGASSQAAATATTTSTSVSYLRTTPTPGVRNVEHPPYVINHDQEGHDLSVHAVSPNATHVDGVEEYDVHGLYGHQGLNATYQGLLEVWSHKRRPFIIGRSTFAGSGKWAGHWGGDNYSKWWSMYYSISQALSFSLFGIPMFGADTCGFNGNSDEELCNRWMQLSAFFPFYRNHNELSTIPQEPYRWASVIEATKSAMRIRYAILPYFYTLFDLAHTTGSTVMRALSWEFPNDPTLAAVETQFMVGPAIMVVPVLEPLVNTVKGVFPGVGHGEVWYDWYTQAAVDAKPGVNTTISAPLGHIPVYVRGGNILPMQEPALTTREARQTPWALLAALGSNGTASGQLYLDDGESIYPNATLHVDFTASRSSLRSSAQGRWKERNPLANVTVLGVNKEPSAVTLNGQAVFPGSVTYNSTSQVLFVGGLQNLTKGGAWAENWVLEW
# Test: personal glucose meter assay of maltose hydrolysis, single concentration […]
# Assay type: biochemical
row,Compound,inhibition at 5000 µM [%]
1,O=Cc1ccc(O)c(O)c1 [protocatechualdehyde],36.8 ± 2.8
2,O=C(/C=C/c1ccc(O)c2c1[C@H](C(=O)O)[C@@H](c1ccc(O)c(O)c1)O2)O[C@H](Cc1ccc(O)c(O)c1)C(=O)O [lithospermic acid],52.5 ± 3
3,"OC[C@H]1O[C@@H](Oc2c(O)cc(O)cc2/C=C/c2ccc(O)cc2)[C@H](O)[C@@H](O)[C@@H]1O [TSG, 2,3,5,4′-tetrahydroxy stilbene-2-O-β-D-glucoside]",27 ± 2
